# In paper PMC12028158, “Synthesis and In Vitro Evaluation of the Anticancer Effect of Novel Phosphonium Vindoline Derivatives” (International Journal of Molecular Sciences, 2025):
# Read-outs that look alike come from different tables or passages of the source.
# Tests used:
# Type in all cases: cell-based
# SF-295 = assay: NCI60 one-dose screen; details: Homo sapiens
# NCI-H226 = assay: NCI60 one-dose screen; details: Homo sapiens
# MOLT-4 = assay: NCI60 five-dose screen; details: Homo sapiens
# SNB-19 = assay: NCI60 five-dose screen; details: Homo sapiens
# TK-10 [1] = assay: NCI60 five-dose screen; details: Homo sapiens
# Renal Cancer panel = assay: NCI60 five-dose screen, panel mean; details: Homo sapiens
# HOP-62 [2] = assay: NCI60 one-dose screen; details: Homo sapiens
# OVCAR-5 [3] = assay: NCI60 five-dose screen; details: Homo sapiens
# T-47D [4] = assay: NCI60 one-dose screen; details: Homo sapiens, T47D, read-out: Growth percent
# MDA-MB-468 [5] = assay: NCI60 one-dose screen; details: Homo sapiens
# COLO 205 [6] = assay: NCI60 five-dose screen; details: Homo sapiens
# RPMI-8226 = assay: NCI60 one-dose screen; details: Homo sapiens
# ACHN [7] = assay: NCI60 five-dose screen; details: Homo sapiens
# NCI-H460 = assay: NCI60 five-dose screen; details: Homo sapiens
# SK-MEL-28 = assay: NCI60 one-dose screen; details: Homo sapiens
# HCT-116 = assay: NCI60 one-dose screen; details: Homo sapiens
# A549/ATCC = assay: NCI60 five-dose screen; details: Homo sapiens
# SNB-75 = assay: NCI60 one-dose screen; details: Homo sapiens
# M14 = assay: NCI60 one-dose screen; details: Homo sapiens
# U251 [8] = assay: NCI60 five-dose screen; details: Homo sapiens
# OVCAR-5 [9] = assay: NCI60 one-dose screen; details: Homo sapiens
# CAKI-1 = assay: NCI60 one-dose screen; details: Homo sapiens
# ACHN [10] = assay: NCI60 one-dose screen; details: Homo sapiens, read-out: Growth percent
# [11] = system: Non-small Cell Lung Cancer panel; assay: NCI60 five-dose screen, panel mean; details: Homo sapiens
# HT29 = assay: NCI60 one-dose screen; details: Homo sapiens
# SF-268 = assay: NCI60 one-dose screen; details: Homo sapiens
# T-47D [12] = assay: NCI60 five-dose screen; details: Homo sapiens, T47D
# TK-10 [13] = assay: NCI60 one-dose screen; details: Homo sapiens
# HOP-62 [14] = assay: NCI60 five-dose screen; details: Homo sapiens
# HS 578T = assay: NCI60 one-dose screen; details: Homo sapiens, read-out: Growth percent
# NCI-H322M = assay: NCI60 five-dose screen; details: Homo sapiens
# DU-145 = assay: NCI60 one-dose screen; details: Homo sapiens
# NCI-H522 = assay: NCI60 one-dose screen; details: Homo sapiens
# COLO 205 [15] = assay: NCI60 one-dose screen; details: Homo sapiens
# CCRF-CEM = assay: NCI60 five-dose screen; details: Homo sapiens
# MDA-MB-468 [16] = assay: NCI60 five-dose screen; details: Homo sapiens
# UACC-257 [17] = assay: NCI60 one-dose screen; details: Homo sapiens
# Colon Cancer panel = assay: NCI60 five-dose screen, panel mean; details: Homo sapiens
# KM12 = assay: NCI60 five-dose screen; details: Homo sapiens
# MCF7 = assay: NCI60 five-dose screen; details: Homo sapiens
# UACC-257 [18] = assay: NCI60 five-dose screen; details: Homo sapiens
# SW-620 = assay: NCI60 five-dose screen; details: Homo sapiens
# LOX IMVI = assay: NCI60 five-dose screen; details: Homo sapiens
# Ovarian Cancer panel = assay: NCI60 five-dose screen, panel mean; details: Homo sapiens
# U251 [19] = assay: NCI60 one-dose screen; details: Homo sapiens
# UO-31 = assay: NCI60 one-dose screen; details: Homo sapiens
structure (smiles),measurement,setting,value
CCC12C=CCN3CCC4(c5ccc(OC)cc5N(C)C4C(O)(C(=O)OC)C1OC(=O)c1ccc(C[P+](c4ccccc4)(c4ccccc4)c4ccccc4)cc1)C32 (centres unmarked) [compound 12],activity at 10 µM,"SF-295; SF-295, 10 μM, one-dose, read-out: Growth percent",5.9%
same,activity at 10 µM,"NCI-H226; NCI-H226, 10 μM, one-dose, read-out: Growth percent",-23.1%
same,GI50,"MOLT-4; MOLT-4, Leukemia, read-out: GI50",1470 nM
same,GI50,"SNB-19; SNB-19, SNB-19, CNS Cancer, read-out: GI50",725 nM
same,GI50,"TK-10 [1]; TK-10, Renal Cancer, read-out: GI50",2840 nM
same,GI50,"Renal Cancer panel; mean over Renal Cancer panel, read-out: GI50 Mean",8.3 µM
same,activity at 10 µM,"HOP-62 [2]; HOP-62, 10 μM, one-dose, read-out: Growth percent",-32.7%
same,GI50,"OVCAR-5 [3]; OVCAR-5, Ovarian Cancer, read-out: GI50",1990 nM
same,activity at 10 µM,"T-47D [4]; T-47D, 10 μM, one-dose",7.1%
same,activity at 10 µM,"MDA-MB-468 [5]; MDA-MB-468, 10 μM, one-dose, read-out: Growth percent",-49.2%
same,GI50,"COLO 205 [6]; COLO 205, COLO 205, Colon Cancer, read-out: GI50",313 nM
same,activity at 10 µM,"RPMI-8226; RPMI-8226, 10 μM, one-dose, read-out: Growth percent",-50.8%
same,GI50,"ACHN [7]; Renal Cancer, read-out: GI50",18.5 µM
same,GI50,"NCI-H460; NCI-H460, Non-small Cell Lung Cancer, read-out: GI50",1660 nM
same,activity at 10 µM,"SK-MEL-28; SK-MEL-28, 10 μM, one-dose, read-out: Growth percent",-92.4%
same,activity at 10 µM,"HCT-116; HCT-116, 10 μM, one-dose, read-out: Growth percent",-62.8%
same,GI50,"A549/ATCC; A549/ATCC, Non-small Cell Lung Cancer, read-out: GI50",2090 nM
same,activity at 10 µM,"SNB-75; SNB-75, 10 μM, one-dose, read-out: Growth percent",-61.7%
same,activity at 10 µM,"M14; M14, 10 μM, one-dose, read-out: Growth percent",-73.9%
same,GI50,"U251 [8]; U-251, U251, CNS Cancer, read-out: GI50",644 nM
same,activity at 10 µM,"OVCAR-5 [9]; OVCAR-5, 10 μM, one-dose, read-out: Growth percent",2.52%
same,activity at 10 µM,"CAKI-1; CAKI-1, 10 μM, one-dose, read-out: Growth percent",-7.04%
same,activity at 10 µM,"ACHN [10]; 10 μM, one-dose",73.7%
same,GI50,"[11]; mean over Non-small Cell Lung Cancer panel, read-out: GI50 Mean",2050 nM
same,activity at 10 µM,"HT29; HT-29, HT29, 10 μM, one-dose, read-out: Growth percent",-39.4%
same,activity at 10 µM,"SF-268; SF-268, 10 μM, one-dose, read-out: Growth percent",-26.1%
same,GI50,"T-47D [12]; T-47D, Breast Cancer, read-out: GI50",525 nM
same,activity at 10 µM,"TK-10 [13]; TK-10, 10 μM, one-dose, read-out: Growth percent",21.4%
same,GI50,"HOP-62 [14]; HOP-62, Non-small Cell Lung Cancer, read-out: GI50",2670 nM
same,activity at 10 µM,"HS 578T; HS 578T, 10 μM, one-dose",-36.6%
same,GI50,"NCI-H322M; Non-small Cell Lung Cancer, read-out: GI50",4.76 µM
same,activity at 10 µM,"DU-145; DU-145, 10 μM, one-dose, read-out: Growth percent",16.9%
same,activity at 10 µM,"NCI-H522; NCI-H522, 10 μM, one-dose, read-out: Growth percent",-17.4%
same,activity at 10 µM,"COLO 205 [15]; COLO 205, 10 μM, one-dose, read-out: Growth percent",-87.2%
same,GI50,"CCRF-CEM; Leukemia, read-out: GI50",1300 nM
same,GI50,"MDA-MB-468 [16]; MDA-MB-468, MDA-MB-468, Breast Cancer, read-out: GI50",186 nM
same,activity at 10 µM,"UACC-257 [17]; UACC-257, 10 μM, one-dose, read-out: Growth percent",-67.6%
same,GI50,"Colon Cancer panel; mean over Colon Cancer panel, read-out: GI50 Mean",4.69 µM
same,GI50,"KM12; KM12, KM12, Colon Cancer, read-out: GI50",514 nM
same,GI50,"MCF7; MCF7, MCF7, Breast Cancer, read-out: GI50",442 nM
same,GI50,"UACC-257 [18]; UACC-257, UACC-257, Melanoma, read-out: GI50",918 nM
same,GI50,"SW-620; SW-620, Colon Cancer, read-out: GI50",1500 nM
same,GI50,"LOX IMVI; Melanoma, read-out: GI50",1820 nM
same,GI50,"Ovarian Cancer panel; mean over Ovarian Cancer panel, read-out: GI50 Mean",15.8 µM
same,activity at 10 µM,"U251 [19]; U-251, U251, 10 μM, one-dose, read-out: Growth percent",-72.6%
same,activity at 10 µM,"UO-31; UO-31, 10 μM, one-dose, read-out: Growth percent",88.3%
CC[C@]12C=CCN3CC[C@@]4(c5ccc(OC)cc5N(C)[C@H]4[C@@](O)(C(=O)OC)[C@@H]1OC(=O)CCC[P+](c1ccccc1)(c1ccccc1)c1ccccc1OC)[C@@H]32 [9f],activity at 10 µM,"SF-295; SF-295, read-out: Growth percent",-42.3%
same,activity at 10 µM,"NCI-H226; NCI-H226, read-out: Growth percent",-38.6%
same,GI50,MOLT-4; MOLT-4,419 nM
same,GI50,SNB-19; SNB-19,313 nM
same,GI50,TK-10 [1]; TK-10,1940 nM
same,GI50,Renal Cancer panel; read-out: Mean GI50,3.08 µM
same,activity at 10 µM,"HOP-62 [2]; HOP-62, read-out: Growth percent",-13.7%
same,GI50,OVCAR-5 [3]; OVCAR-5,735 nM
same,activity at 10 µM,T-47D [4],-25%
same,activity at 10 µM,"MDA-MB-468 [5]; MDA-MB-468, read-out: Growth percent",-84.6%
same,GI50,COLO 205 [6]; COLO 205,179 nM
same,activity at 10 µM,"RPMI-8226; RPMI-8226, read-out: Growth percent",-38%
same,GI50,ACHN [7],4.58 µM
same,GI50,NCI-H460; NCI-H460,774 nM
same,activity at 10 µM,"SK-MEL-28; SK-MEL-28, read-out: Growth percent",-63.3%
same,activity at 10 µM,"HCT-116; HCT-116, read-out: Growth percent",-51%
same,GI50,A549/ATCC; A549,945 nM
same,activity at 10 µM,"SNB-75; SNB-75, read-out: Growth percent",-79.5%
same,activity at 10 µM,"M14; M14, read-out: Growth percent",-82.9%
same,GI50,U251 [8]; U-251,248 nM
same,activity at 10 µM,"OVCAR-5 [9]; OVCAR-5, read-out: Growth percent",10.6%
same,activity at 10 µM,"CAKI-1; CAKI-1, read-out: Growth percent",-40.2%
same,activity at 10 µM,ACHN [10],0.6%
same,GI50,[11]; read-out: Mean GI50,1050 nM
same,activity at 10 µM,"HT29; HT-29, read-out: Growth percent",-57.8%
same,activity at 10 µM,"SF-268; SF-268, read-out: Growth percent",-76.1%
same,GI50,T-47D [12],302 nM
same,activity at 10 µM,"TK-10 [13]; TK-10, read-out: Growth percent",-88.5%
same,GI50,HOP-62 [14]; HOP-62,2160 nM
same,activity at 10 µM,HS 578T; Hs-578T,-47.4%
same,GI50,NCI-H322M,2.23 µM
same,activity at 10 µM,"DU-145; DU-145, read-out: Growth percent",1.94%
same,activity at 10 µM,"NCI-H522; NCI-H522, read-out: Growth percent",-70.4%
same,activity at 10 µM,"COLO 205 [15]; COLO 205, read-out: Growth percent",-90.7%
same,GI50,CCRF-CEM,256 nM
same,GI50,MDA-MB-468 [16]; MDA-MB-468,129 nM
same,activity at 10 µM,"UACC-257 [17]; UACC-257, read-out: Growth percent",-73%
same,GI50,Colon Cancer panel; read-out: Mean GI50,1.61 µM
same,GI50,KM12; KM12,331 nM
same,GI50,MCF7; MCF7,288 nM
same,GI50,UACC-257 [18]; UACC-257,406 nM
same,GI50,SW-620; SW-620,637 nM
same,GI50,LOX IMVI,429 nM
same,GI50,Ovarian Cancer panel; read-out: Mean GI50,4.2 µM
same,activity at 10 µM,"U251 [19]; U-251, read-out: Growth percent",-96.9%
same,activity at 10 µM,"UO-31; UO-31, read-out: Growth percent",44%
